We go through 19 compounds from US8871753B2, “Macrocyclic compounds and their use as kinase inhibitors” (Incyte Corporation, priority 2008, dated 2014).

Assay type in all cases: biochemical
Assay [1] concerns the target T1, human JAK3 (a.a. 781-1124) (Homo sapiens, UniProt P52333).
T1 construct: JAK3 (a.a. 781-1124); His tag (N); made in house; host or cells: insect cells (baculovirus)
Put plainly: In vitro JAK kinase assay (HTRF, phosphorylation of a biotinylated peptide), JAK3. The method in brief:
(§1)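 Phosphorylation of a biotinylated peptide by the JAK kinase domain, detected by HTRF with Eu-Py20 and SA-APC. ATP was 90 μM for JAK1, 30 μM for JAK2 and 3 μM for JAK3. Reactions ran 1 h at room temperature and were stopped with EDTA, followed by 40 min antibody binding.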

For assay [2], the target named is T2, Recombinant Human Anaplastic Lymphoma Kinase (Homo sapiens, UniProt Q9UM73).
T2 construct: purchased Invitrogen, Carlsbad, Calif
Description: ALK HTRF kinase assay. The method in brief: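 Biotinylated peptide substrate, recombinant human ALK; detection via europium-chelate antibody to phosphotyrosine paired with streptavidin-APC. Potency expressed as IC50 from four-parameter curve fitting.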
Background: TR-FRET usually uses a lanthanide donor and a delayed reading to cut background.

The target in assay [3] is T3, human JAK1 (a.a. 837-1142) (Homo sapiens, UniProt P23458).
T3 construct: human JAK1 (a.a. 837-1142); His tag (N); made in house; host or cells: insect cells (baculovirus)
Description: In vitro JAK kinase assay (HTRF, phosphorylation of a biotinylated peptide), JAK1. The conditions noted are these: read-out: JAK1 IC50. The method in brief: as §1

The target of assay [4] is T4, human JAK2 (a.a. 828-1132) (Homo sapiens, UniProt O60674).
T4 construct: JAK2 (a.a. 828-1132); His tag (N); made in house; host or cells: insect cells (baculovirus)
Put plainly: In vitro JAK kinase assay (HTRF, phosphorylation of a biotinylated peptide), JAK2. The method in brief:
as §1

The target in another assay is TYK2 (Homo sapiens, UniProt P29597). Put plainly: TYK2 kinase inhibition (Table A1).

Where a name gives a salt, the structure may show the parent alone. Read-outs that look alike come from different tables or passages of the source. Where only a bound is given, the exact number is not on record here.

T1 sequence (P52333 781-1124): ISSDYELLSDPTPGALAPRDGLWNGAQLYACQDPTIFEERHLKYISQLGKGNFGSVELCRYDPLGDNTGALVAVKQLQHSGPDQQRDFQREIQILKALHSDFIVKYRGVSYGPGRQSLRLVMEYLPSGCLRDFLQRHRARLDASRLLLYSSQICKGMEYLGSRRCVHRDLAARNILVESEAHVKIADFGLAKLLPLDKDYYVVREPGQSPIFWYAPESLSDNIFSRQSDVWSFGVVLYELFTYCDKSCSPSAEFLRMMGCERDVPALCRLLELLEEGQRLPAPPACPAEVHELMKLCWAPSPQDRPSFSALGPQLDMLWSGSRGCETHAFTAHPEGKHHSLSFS
T2 sequence (Q9UM73 19-1620): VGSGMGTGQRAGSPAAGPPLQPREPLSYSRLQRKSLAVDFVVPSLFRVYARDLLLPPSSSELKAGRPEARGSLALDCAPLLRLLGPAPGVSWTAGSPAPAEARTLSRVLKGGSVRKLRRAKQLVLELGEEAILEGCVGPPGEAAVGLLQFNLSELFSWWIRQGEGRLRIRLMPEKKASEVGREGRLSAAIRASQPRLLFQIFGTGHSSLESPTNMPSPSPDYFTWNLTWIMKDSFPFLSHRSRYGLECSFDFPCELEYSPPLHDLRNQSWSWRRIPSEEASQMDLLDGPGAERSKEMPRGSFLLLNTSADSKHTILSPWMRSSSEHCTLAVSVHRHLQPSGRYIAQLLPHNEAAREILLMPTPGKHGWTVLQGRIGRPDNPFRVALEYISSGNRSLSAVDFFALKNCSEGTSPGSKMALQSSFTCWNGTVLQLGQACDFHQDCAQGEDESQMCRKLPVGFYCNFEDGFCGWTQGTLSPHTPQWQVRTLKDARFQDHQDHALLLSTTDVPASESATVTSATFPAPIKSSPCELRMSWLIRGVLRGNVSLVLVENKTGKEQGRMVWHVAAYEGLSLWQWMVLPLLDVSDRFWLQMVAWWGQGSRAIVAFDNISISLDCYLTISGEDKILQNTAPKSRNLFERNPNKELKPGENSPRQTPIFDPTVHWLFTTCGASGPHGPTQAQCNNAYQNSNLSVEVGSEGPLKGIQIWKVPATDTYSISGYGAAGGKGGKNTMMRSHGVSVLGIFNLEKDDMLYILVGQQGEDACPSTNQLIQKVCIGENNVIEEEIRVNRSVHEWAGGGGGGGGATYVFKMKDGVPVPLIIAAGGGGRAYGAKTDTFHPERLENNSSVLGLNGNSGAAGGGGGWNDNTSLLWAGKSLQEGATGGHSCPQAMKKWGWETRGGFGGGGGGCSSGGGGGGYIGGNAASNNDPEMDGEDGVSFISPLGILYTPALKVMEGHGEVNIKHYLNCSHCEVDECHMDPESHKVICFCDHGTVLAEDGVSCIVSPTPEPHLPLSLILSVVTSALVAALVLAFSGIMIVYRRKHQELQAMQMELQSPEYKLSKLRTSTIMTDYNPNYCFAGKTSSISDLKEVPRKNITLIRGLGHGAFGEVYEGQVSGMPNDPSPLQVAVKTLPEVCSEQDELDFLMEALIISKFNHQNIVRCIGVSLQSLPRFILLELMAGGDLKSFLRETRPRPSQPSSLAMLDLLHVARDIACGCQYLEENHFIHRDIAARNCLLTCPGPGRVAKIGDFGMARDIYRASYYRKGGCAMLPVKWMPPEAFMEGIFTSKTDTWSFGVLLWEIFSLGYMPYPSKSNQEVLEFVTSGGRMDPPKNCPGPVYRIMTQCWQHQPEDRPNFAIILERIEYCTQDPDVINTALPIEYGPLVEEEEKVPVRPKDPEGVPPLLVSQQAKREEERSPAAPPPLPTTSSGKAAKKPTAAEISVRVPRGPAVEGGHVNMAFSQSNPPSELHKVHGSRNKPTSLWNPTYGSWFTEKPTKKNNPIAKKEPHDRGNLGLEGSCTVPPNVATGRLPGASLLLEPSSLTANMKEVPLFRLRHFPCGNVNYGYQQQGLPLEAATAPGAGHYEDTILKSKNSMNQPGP
TYK2, sequence (P29597 whole entry): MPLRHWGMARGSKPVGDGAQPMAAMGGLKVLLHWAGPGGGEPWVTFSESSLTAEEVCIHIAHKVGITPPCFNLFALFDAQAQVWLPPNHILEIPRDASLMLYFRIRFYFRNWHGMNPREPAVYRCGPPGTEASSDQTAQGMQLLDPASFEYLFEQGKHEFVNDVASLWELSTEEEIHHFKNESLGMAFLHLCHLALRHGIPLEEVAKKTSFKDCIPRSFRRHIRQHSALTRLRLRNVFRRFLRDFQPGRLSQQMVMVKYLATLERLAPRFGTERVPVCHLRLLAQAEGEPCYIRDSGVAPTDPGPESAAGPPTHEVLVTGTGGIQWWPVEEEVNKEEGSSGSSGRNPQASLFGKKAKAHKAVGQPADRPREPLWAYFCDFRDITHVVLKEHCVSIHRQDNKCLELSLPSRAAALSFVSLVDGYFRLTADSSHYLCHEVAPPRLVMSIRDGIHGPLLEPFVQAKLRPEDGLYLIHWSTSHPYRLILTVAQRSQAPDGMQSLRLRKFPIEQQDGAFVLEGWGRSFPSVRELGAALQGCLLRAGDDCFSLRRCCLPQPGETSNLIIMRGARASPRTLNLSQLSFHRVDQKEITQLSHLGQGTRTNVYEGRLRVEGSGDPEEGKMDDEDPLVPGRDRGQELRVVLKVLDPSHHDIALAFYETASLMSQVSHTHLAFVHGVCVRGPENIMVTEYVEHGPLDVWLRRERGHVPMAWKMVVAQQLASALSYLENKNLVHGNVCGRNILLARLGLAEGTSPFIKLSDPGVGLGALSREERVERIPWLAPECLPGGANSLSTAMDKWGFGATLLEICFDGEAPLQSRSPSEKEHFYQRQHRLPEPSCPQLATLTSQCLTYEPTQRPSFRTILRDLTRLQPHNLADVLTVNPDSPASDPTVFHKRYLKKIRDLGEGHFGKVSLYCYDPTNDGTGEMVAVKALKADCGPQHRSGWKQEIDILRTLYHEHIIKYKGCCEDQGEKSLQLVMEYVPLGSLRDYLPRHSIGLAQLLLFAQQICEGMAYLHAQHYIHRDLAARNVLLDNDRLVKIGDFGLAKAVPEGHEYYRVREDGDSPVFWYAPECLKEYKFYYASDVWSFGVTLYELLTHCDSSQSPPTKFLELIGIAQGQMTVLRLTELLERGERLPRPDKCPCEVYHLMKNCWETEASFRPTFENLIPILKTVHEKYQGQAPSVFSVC
T3 sequence (P23458 849-1154): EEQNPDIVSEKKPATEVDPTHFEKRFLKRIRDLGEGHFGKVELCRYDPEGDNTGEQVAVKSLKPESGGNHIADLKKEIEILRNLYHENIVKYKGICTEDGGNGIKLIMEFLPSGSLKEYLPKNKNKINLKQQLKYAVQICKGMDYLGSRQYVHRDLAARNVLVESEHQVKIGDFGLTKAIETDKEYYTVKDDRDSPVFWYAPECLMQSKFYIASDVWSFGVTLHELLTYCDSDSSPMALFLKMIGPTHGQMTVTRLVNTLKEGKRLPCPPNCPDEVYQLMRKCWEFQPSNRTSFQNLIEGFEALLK
T4 sequence (O60674 828-1132): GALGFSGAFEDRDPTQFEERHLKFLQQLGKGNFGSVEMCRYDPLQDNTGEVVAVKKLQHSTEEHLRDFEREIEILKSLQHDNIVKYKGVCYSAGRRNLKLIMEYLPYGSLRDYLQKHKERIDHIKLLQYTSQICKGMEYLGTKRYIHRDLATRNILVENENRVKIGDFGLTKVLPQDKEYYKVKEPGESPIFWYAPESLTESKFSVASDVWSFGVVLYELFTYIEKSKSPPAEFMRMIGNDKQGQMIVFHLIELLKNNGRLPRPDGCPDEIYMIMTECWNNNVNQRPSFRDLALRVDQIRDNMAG

`O=C1Nc2cccc(c2)Nc2nc(ncc2Cl)Nc2cccc1c2` [Example C2, 6-Chloro-2,4,8,14,22-pentaazatetracyclo[14.3.1.1(3,7).1(9,13)]docosa-1(20),3(22),4,6,9(21),10,12,16,18-nonaen-15-one hydrochloride]: the IC50 (in assay [1]; in assay [2]; in assay [3]; in assay [4]; on TYK2) was more than 1000 nM in each case.

With `O=S1(=O)NCc2cccc(c2)Nc2nc(ncc2Cl)Nc2cccc1c2` [Example C3, 6-Chloro-16-thia-2,4,8,15,23-pentaazatetracyclo[15.3.1.1(3,7).1(9,13)]tricosa-1(21),3(23),4,6,9(22),10,12,17,19-nonaene 16,16-dioxide], the IC50 in assay [1] stood at 115 nM; in assay [2] it was 6600 nM; in assay [3], 81 nM; in assay [4] it was 37 nM; against TYK2, 91 nM.

For `O=C1NCc2cccc(c2)Nc2ncc(Cl)c(n2)Nc2cccc1c2` [Example C4, 6-Chloro-2,4,8,15,23-pentaazatetracyclo[15.3.1.1(3,7).1(9,13)]tricosa-1(21),3(23),4,6,9(22),10,12,17,19-nonaen-14-one], the IC50 in assay [1] was 317 nM; in assay [2] it was more than 1000 nM; in assay [3], 361 nM; in assay [4], 350 nM; on TYK2, more than 1000 nM.

With `O=C1NCc2cccc(c2)Nc2nc(ncc2Cl)Nc2cccc1c2` [Example C5, 6-Chloro-2,4,8,15,23-pentaazatetracyclo[15.3.1.1(3,7).1(9,13)]tricosa-1(21),3(23),4,6,9(22),10,12,17,19-nonaen-16-one hydrochloride], the IC50 (in assay [1]; in assay [2]; in assay [3]; in assay [4]; at TYK2) was more than 1000 nM each time.

In the case of `O=S1(=O)Nc2cccc(c2)Nc2nc(ncc2Cl)Nc2cccc1c2` [Example C6, 6-Chloro-15-thia-2,4,8,14,22-pentaazatetracyclo[14.3.1.1(3,7).1(9,13)]docosa-1(20),3(22),4,6,9(21),10,12,16,18-nonaene 15,15-dioxide trifluoroacetate], the IC50 in assay [1] is 377 nM; in assay [2], more than 10000 nM; in assay [3], 220 nM; in assay [4], 70 nM; against TYK2 it was 240 nM.

`O=S1(=O)Nc2cccc(c2)Nc2ncc(Cl)c(n2)Nc2cccc1c2` [Example C7, 6-Chloro-14-thia-2,4,8,15,22-pentaazatetracyclo[14.3.1.1(3,7).1(9,13)]docosa-1(20),3(22),4,6,9(21),10,12,16,18-nonaene 14,14-dioxide trifluoroacetate]: the IC50 in assay [1] came to 82 nM; in assay [2] it was 1900 nM; in assay [3], 63 nM; in assay [4] it was 36 nM; against TYK2 it was 32 nM.

In the case of `O=S1(=O)Cc2cccc(c2)Nc2ncc(Cl)c(n2)Nc2cccc(c2)N1` [Example C9, 6-Chloro-15-thia-2,4,8,14,23-pentaazatetracyclo[15.3.1.1(3,7).1(9,13)]tricosa-1(21),3(23),4,6,9(22),10,12,17,19-nonaene 15,15-dioxide trifluoroacetate], the IC50 in assay [1] is 412 nM; in assay [2], more than 1000 nM; in assay [3] it was 144 nM; in assay [4] it was 93 nM; against TYK2, 353 nM.

With `O=C1Cc2cccc(c2)Nc2ncc(Cl)c(n2)Nc2cccc(c2)N1` [Example C10, 6-Chloro-2,4,8,14,23-pentaazatetracyclo[15.3.1.1(3,7).1(9,13)]tricosa-1(21),3(23),4,6,9(22),10,12,17,19-nonaen-15-one trifluoroacetate], the IC50 is more than 1000 nM in assay [1]; more than 10000 nM in assay [2]; 154 nM in assay [3]; 303 nM in assay [4]; 60 nM against TYK2.

`O=C1Cc2cccc(c2)Nc2nc(ncc2Cl)Nc2cccc(c2)N1` [Example C11, 6-Chloro-2,4,8,16,23-pentaazatetracyclo[15.3.1.1(3,7).1(9,13)]tricosa-1(21),3(23),4,6,9(22),10,12,17,19-nonaen-15-one trifluoroacetate]: the IC50 is more than 1000 nM in assay [1]; more than 10000 nM in assay [2]; more than 1000 nM in assay [3]; more than 1000 nM in assay [4]; more than 1000 nM against TYK2.

Consider `Clc1cnc2nc1Nc1cccc(c1)SCc1cccc(c1)N2` [Example D1, 6-Chloro-14-thia-2,4,8,22-tetraazatetracyclo[14.3.1.1(3,7).1(9,13)]docosa-1(20),3(22),4,6,9(21),10,12,16,18-nonaene trifluoroacetate], for which the IC50 in assay [1] (Table D1) was 16 nM; in assay [2] (Table D1, 90 μM ATP) it was 620 nM; in assay [3] (Table D1) it was 13 nM; in assay [4] (Table D1) it was 9.6 nM; on TYK2 (Table D1) it was 14 nM.

With `Clc1cnc2nc1Nc1cccc(c1)CSc1cccc(c1)N2` [Example D2, 6-Chloro-15-thia-2,4,8,22-tetraazatetracyclo[14.3.1.1(3,7).1(9,13)]docosa-1(20),3(22),4,6,9(21),10,12,16,18-nonaene trifluoroacetate], the IC50 in assay [1] (Table D1) came to 13 nM; in assay [2] (Table D1, 90 μM ATP), 774 nM; in assay [3] (Table D1) it was 19 nM; in assay [4] (Table D1), 7.3 nM; against TYK2 (Table D1), 25 nM.

Regarding `[O-][S+]1Cc2cccc(c2)Nc2nc(ncc2Cl)Nc2cccc1c2` (centres unmarked) [Example D3, 6-Chloro-15-thia-2,4,8,22-tetraazatetracyclo[14.3.1.1(3,7).1(9,13)]docosa-1(20),3(22),4,6,9(21),10,12,16,18-nonaene 15-oxide trifluoroacetate], the IC50 worked out at 13 nM in assay [1] (Table D1); 1110 nM in assay [2] (Table D1, 90 μM ATP); 25 nM in assay [3] (Table D1); 6.3 nM in assay [4] (Table D1); 40 nM at TYK2 (Table D1).

`O=S1(=O)Cc2cccc(c2)Nc2nc(ncc2Cl)Nc2cccc1c2` [Example D4, 6-Chloro-15-thia-2,4,8,22-tetraazatetracyclo[14.3.1.1(3,7).1(9,13)]docosa-1(20),3(22),4,6,9(21),10,12,16,18-nonaene 15,15-dioxide trifluoroacetate]: the IC50 in assay [1] (Table D1) came out at 25 nM; in assay [2] (Table D1, 90 μM ATP) it was 774 nM; in assay [3] (Table D1), 91 nM; in assay [4] (Table D1), 16 nM; on TYK2 (Table D1), 50 nM.

As for `Clc1cnc2nc1Nc1cccc(c1)COc1cccc(c1)N2` [Example D6, 6-Chloro-15-oxa-2,4,8,22-tetraazatetracyclo[14.3.1.1(3,7).1(9,13)]docosa-1(20),3(22),4,6,9(21),10,12,16,18-nonaene trifluoroacetate], the IC50 in assay [1] (Table D1) is more than 100 nM; in assay [2] (Table D1, 90 μM ATP) it was 4190 nM; in assay [3] (Table D1) it was 36 nM; in assay [4] (Table D1) it was 37 nM; at TYK2 (Table D1), 16 nM.

Regarding `Clc1cnc2nc1Nc1cccc(c1)OCc1cccc(c1)N2` [Example D7, 6-Chloro-14-oxa-2,4,8,22-tetraazatetracyclo[14.3.1.1(3,7).1(9,13)]docosa-1(20),3(22),4,6,9(21),10,12,16,18-nonaene trifluoroacetate], the IC50 in assay [1] (Table D1) was more than 100 nM; in assay [2] (Table D1, 90 μM ATP), more than 10000 nM; in assay [3] (Table D1), 100 nM; in assay [4] (Table D1), 61 nM; on TYK2 (Table D1), more than 100 nM.

`Clc1cnc2nc1Nc1cccc(c1)OCCc1cccc(c1)N2` [Example D8, 6-Chloro-14-oxa-2,4,8,23-tetraazatetracyclo[15.3.1.1(3,7).1(9,13)]tricosa-1(21),3(23),4,6,9(22),10,12,17,19-nonaene trifluoroacetate]: the IC50 in assay [1] (Table D1) was determined as 13 nM; in assay [2] (Table D1, 90 μM ATP) it was 351 nM; in assay [3] (Table D1) it was 7.9 nM; in assay [4] (Table D1), 5.4 nM; on TYK2 (Table D1), 19 nM.

As for `CN1c2cccc(c2)OCCc2cccc(c2)Nc2ncc(Cl)c1n2` [Example D9, 6-Chloro-8-methyl-14-oxa-2,4,8,23-tetraazatetracyclo[15.3.1.1(3,7).1(9,13)]tricosa-1(21),3(23),4,6,9(22),10,12,17,19-nonaene trifluoroacetate], the IC50 in assay [1] (Table D1) is 489 nM; in assay [2] (Table D1, 90 μM ATP) it was more than 952 nM; in assay [3] (Table D1), 183 nM; in assay [4] (Table D1) it was 47 nM; against TYK2 (Table D1), 137 nM.

In the case of `Clc1cnc2nc1Nc1cccc(c1)OCCOc1cccc(c1)N2` [Example D10, 6-Chloro-14,17-dioxa-2,4,8,24-tetraazatetracyclo[16.3.1.1(3,7).1(9,13)]tetracosa-1(22),3(24),4,6,9(23),10,12,18,20-nonaene trifluoroacetate], the IC50 in assay [1] (Table D1) is 10 nM; in assay [2] (Table D1, 90 μM ATP), 791 nM; in assay [3] (Table D1) it was 8.2 nM; in assay [4] (Table D1), 2.4 nM; against TYK2 (Table D1), 8.1 nM.

With `Clc1cnc2nc1Nc1cccc(c1)SCCOc1cccc(c1)N2` [Example D11, 6-Chloro-17-oxa-14-thia-2,4,8,24-tetraazatetracyclo[16.3.1.1(3,7).1(9,13)]tetracosa-1(22),3(24),4,6,9(23),10,12,18,20-nonaene trifluoroacetate], the IC50 was 24 nM in assay [1] (Table D1); 480 nM in assay [2] (Table D1, 90 μM ATP); 3.4 nM in assay [3] (Table D1); 5.4 nM in assay [4] (Table D1); 9.9 nM on TYK2 (Table D1).

As usually defined, the IC50 is the concentration that inhibits the measured activity by half.
